Here are results for eight compounds from paper PMC8308925 (Pharmaceuticals, 2021).

SMILES strings stand for the structures.

Series [1] has as its system OAT3. The settings on record: inhibition of OAT3, implemented in DDI model; ref [41]; cited from earlier work.
Series [2] addresses T1, ASBT (Homo sapiens, UniProt Q12908).
T1 sequence (Q12908 1-348): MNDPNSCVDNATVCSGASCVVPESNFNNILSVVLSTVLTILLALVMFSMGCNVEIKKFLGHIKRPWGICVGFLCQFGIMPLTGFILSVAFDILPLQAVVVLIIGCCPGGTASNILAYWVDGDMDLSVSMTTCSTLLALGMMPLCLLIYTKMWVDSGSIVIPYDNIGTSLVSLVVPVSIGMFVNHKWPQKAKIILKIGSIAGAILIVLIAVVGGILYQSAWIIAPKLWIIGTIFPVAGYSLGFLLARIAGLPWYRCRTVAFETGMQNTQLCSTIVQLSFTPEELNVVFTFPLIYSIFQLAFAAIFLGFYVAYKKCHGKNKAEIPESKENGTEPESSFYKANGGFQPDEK
The settings on record: inhibition of ASBT, implemented in DDI model; ref [38]; cited from earlier work.

The target in series [3] is T2, UGT1A9 (Homo sapiens, UniProt O60656).
T2 sequence (O60656 26-530): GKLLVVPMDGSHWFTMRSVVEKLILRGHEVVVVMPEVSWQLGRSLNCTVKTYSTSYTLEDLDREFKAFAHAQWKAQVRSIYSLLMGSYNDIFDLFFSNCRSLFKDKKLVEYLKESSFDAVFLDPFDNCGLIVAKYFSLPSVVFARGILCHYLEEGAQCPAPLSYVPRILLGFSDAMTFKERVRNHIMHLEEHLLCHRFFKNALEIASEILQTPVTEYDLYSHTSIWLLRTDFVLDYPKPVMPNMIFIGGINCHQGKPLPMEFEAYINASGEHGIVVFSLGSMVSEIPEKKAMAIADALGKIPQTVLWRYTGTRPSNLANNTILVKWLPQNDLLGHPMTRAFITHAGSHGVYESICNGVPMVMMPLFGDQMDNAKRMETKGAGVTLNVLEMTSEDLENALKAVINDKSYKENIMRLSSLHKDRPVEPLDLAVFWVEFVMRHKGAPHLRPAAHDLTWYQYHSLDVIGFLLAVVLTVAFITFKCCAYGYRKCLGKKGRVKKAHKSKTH
Nature of the series: biochemical.

Series [4] addresses T3, UGT1A1 (Homo sapiens, UniProt P22309).
T3 sequence (P22309 26-533): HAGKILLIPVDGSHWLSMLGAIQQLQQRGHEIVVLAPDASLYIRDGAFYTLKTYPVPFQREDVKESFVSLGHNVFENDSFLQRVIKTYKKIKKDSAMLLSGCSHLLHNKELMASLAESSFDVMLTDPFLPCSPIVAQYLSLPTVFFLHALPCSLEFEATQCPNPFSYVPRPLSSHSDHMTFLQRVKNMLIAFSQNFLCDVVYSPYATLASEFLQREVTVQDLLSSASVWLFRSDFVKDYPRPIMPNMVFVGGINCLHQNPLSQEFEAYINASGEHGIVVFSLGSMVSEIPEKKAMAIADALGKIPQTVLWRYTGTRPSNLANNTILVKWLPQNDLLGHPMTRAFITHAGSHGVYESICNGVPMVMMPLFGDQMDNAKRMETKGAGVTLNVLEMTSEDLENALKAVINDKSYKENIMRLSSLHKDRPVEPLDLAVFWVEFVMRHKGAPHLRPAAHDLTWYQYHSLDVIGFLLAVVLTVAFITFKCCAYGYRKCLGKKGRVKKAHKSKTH
Briefly: biochemical.

Series [5] has as its target CYP2E1 (Homo sapiens, UniProt P05181). Nature of the series: biochemical.
Series [6] addresses T4, UGT1A4 (Homo sapiens, UniProt P22310).
T4 sequence (P22310 29-534): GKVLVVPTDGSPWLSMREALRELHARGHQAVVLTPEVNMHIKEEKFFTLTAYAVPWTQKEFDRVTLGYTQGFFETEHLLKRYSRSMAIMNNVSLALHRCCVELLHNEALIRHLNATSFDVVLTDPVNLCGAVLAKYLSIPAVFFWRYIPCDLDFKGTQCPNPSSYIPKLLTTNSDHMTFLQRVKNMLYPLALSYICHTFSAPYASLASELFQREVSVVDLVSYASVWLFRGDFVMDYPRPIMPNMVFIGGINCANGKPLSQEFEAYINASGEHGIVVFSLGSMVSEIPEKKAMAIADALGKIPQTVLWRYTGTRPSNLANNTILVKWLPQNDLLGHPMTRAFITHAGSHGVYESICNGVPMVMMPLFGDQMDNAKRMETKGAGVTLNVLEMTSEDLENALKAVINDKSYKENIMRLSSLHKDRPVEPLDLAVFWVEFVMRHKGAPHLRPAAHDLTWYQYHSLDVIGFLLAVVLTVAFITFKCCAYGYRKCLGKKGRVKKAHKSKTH
Briefly: biochemical.

The target of series [7] is T5, OCT2 (Homo sapiens, UniProt O15244).
T5 sequence (O15244 1-555): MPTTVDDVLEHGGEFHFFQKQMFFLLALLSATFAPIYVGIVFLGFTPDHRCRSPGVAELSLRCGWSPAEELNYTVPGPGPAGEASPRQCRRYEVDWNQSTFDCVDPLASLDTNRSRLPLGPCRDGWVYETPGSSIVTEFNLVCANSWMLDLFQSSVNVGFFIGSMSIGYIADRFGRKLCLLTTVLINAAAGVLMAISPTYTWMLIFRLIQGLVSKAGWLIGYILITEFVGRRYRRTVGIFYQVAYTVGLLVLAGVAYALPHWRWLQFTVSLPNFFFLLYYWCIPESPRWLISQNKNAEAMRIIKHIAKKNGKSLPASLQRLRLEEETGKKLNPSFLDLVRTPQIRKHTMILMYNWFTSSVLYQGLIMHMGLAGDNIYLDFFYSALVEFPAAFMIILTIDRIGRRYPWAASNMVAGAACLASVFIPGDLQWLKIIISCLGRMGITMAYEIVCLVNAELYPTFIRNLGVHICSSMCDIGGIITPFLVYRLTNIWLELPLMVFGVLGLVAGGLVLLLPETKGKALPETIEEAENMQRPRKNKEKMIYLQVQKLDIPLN
As to conditions: 4 µM probe substrate, HEK 293-OCT2. Here is the method:
(§1) OCT1-, OCT2-, MATE1-, and MATE2K-overexpressing HEK 293 cells and mock cells. To
(§2) aminohippuric acid for OAT1, 4 µM [14C]Metformin for OCT1, OCT2, MATE1, and
(§3) lein for OATP2B1, 100 µM probenecid for OAT1, 100 µM verapamil for OCT1, 200 µM
(§4) and MATE2K, respectively).
(§5) and –MATE2K and mock cells.

Series [8] addresses T6, OCT1 (Homo sapiens, UniProt O15245).
T6 sequence (O15245 1-554): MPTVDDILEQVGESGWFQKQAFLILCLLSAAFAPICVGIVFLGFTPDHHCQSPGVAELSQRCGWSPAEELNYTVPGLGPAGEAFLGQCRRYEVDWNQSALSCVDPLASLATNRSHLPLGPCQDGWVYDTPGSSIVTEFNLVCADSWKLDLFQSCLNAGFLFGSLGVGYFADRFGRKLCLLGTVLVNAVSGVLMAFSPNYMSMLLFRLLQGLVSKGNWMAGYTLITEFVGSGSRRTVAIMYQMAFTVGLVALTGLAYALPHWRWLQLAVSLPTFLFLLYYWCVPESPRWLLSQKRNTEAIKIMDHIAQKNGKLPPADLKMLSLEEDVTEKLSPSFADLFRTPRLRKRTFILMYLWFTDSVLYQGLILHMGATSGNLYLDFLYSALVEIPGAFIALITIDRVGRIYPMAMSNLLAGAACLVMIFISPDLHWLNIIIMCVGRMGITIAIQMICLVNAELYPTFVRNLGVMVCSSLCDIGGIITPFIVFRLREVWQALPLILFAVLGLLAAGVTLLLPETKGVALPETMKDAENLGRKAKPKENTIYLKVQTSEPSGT
As to conditions: 4 µM probe substrate, HEK 293-OCT1. How it is done: as §1, §2, §3, §4, §5

Series [9] deals with MATE2K (Homo sapiens, UniProt Q86VL8). As to conditions: 4 µM probe substrate, HEK 293-MATE2K. Here is the method:
as §1, §2, §3, §4, §5

Series [10] deals with T7, MATE1 (Homo sapiens, UniProt Q96FL8).
T7 sequence (Q96FL8 1-570): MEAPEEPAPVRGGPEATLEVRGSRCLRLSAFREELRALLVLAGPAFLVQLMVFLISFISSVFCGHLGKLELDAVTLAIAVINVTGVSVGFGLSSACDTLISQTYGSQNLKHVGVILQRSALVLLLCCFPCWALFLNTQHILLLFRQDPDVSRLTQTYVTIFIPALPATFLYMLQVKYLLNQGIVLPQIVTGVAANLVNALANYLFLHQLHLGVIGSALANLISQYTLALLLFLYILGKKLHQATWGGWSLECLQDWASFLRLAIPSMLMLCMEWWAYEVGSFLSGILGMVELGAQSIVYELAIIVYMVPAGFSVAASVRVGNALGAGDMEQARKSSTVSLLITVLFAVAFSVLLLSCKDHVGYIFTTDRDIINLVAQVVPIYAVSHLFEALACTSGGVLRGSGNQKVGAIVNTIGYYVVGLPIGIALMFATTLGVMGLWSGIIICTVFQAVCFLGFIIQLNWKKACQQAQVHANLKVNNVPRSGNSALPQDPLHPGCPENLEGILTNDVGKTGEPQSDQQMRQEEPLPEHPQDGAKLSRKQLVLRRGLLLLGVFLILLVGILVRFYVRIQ
The settings on record: 4 µM probe substrate, HEK 293-MATE1. How it is done: as §1, §2, §3, §4, §5

Series [11] concerns the target T8, CYP2C8 (Homo sapiens, UniProt P10632).
T8 sequence (P10632 1-490): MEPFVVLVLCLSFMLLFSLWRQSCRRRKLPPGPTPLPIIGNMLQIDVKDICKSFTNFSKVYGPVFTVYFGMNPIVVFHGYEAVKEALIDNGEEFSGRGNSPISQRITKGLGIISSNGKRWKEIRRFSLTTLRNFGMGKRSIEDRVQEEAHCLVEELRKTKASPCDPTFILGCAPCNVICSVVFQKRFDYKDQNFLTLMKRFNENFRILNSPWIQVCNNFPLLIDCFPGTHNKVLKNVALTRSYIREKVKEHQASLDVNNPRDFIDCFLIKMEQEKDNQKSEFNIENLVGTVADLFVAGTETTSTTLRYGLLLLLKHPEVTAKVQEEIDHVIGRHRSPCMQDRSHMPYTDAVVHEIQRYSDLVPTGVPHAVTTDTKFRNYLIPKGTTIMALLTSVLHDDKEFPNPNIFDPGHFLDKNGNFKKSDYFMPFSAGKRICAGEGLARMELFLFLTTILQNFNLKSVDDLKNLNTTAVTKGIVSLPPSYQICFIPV
The settings on record: read-out: Positive control IC50; Rosiglitazone hydroxylation; in-house data, similar to the reference values [1].

Series [12] deals with T9, UGT2B7 (Homo sapiens, UniProt P16662).
T9 sequence (P16662 24-529): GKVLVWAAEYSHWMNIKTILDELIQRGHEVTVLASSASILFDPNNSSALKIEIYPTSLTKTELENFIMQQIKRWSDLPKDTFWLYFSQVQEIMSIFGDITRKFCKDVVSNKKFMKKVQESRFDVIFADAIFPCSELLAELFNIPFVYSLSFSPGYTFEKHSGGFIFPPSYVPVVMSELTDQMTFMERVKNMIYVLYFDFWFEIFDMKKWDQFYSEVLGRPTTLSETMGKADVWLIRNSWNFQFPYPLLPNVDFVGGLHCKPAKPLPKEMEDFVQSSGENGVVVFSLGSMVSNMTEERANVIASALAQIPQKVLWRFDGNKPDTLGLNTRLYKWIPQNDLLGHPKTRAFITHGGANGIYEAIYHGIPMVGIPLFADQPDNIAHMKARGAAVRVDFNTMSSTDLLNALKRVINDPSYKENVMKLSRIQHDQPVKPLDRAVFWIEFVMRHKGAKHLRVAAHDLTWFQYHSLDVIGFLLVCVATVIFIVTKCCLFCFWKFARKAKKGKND
Briefly: biochemical.

Chain of MATE2K (Q86VL8 1-566 isoform Q86VL8-3): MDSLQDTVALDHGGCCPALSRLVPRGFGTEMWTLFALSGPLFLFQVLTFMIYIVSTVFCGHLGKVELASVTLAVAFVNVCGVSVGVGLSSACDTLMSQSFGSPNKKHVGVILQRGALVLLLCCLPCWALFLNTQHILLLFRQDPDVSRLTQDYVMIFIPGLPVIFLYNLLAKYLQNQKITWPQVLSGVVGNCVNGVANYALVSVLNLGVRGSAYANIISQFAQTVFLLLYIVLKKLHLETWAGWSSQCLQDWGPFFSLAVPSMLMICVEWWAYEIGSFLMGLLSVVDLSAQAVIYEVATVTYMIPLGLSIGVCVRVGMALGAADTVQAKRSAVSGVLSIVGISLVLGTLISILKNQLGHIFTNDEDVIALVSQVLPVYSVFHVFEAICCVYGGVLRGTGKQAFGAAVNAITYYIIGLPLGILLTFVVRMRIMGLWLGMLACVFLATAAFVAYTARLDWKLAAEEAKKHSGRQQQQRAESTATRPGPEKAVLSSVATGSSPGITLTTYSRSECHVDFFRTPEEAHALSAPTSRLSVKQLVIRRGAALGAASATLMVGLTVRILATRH
Chain of CYP2E1 (P05181 whole entry): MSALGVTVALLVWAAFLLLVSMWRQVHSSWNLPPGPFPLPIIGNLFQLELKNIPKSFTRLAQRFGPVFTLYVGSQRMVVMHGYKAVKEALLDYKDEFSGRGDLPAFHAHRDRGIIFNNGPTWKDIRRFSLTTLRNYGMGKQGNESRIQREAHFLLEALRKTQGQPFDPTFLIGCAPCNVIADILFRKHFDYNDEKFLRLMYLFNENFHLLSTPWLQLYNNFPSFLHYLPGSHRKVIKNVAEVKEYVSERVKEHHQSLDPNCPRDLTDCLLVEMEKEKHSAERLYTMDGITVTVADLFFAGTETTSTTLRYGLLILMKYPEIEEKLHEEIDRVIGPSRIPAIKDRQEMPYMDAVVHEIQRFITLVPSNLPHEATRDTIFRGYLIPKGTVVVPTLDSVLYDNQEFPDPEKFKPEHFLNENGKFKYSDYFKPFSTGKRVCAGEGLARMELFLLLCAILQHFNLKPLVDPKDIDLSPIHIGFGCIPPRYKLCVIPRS

On to `CCc1ccc(CCOc2ccc(CC3SC(=O)NC3=O)cc2)nc1` (stereo not drawn) [pioglitazone], for which the figures for the Ki in series [1] and in series [2] were 1020 nM and 54.6 µM, respectively.
As to `O=C(O)c1cccnc1Nc1cccc(C(F)(F)F)c1` [Niflumic acid], the IC50 in series [3] turned out to be 280 nM.
Regarding `COC(=O)N[C@H](C(=O)N[C@@H](Cc1ccccc1)[C@@H](O)CN(Cc1ccc(-c2ccccn2)cc1)NC(=O)[C@@H](NC(=O)OC)C(C)(C)C)C(C)(C)C` [Atazanavir], 290 nM corresponded to half-maximal inhibition in [4] (IC50).
As for `CCN(CC)C(=S)S` [Diethyldithio-carbamate], half-maximal inhibition in series [5] (IC50) was put at 16.7 µM.
As to `C[C@@H]1CC[C@@]2(OC1)O[C@H]1C[C@H]3[C@@H]4CC[C@H]5C[C@@H](O)CC[C@]5(C)[C@H]4CC(=O)[C@]3(C)[C@H]1[C@@H]2C` [Hecogenin], in series [6], the IC50 is 2100 nM.
In the case of `CN(C)C(N)=NC(=N)N` [[14C]Metformin], the “Increase of probe substrate uptake rate in transporter-expressing cells compared to mock cells” value turned out to be 8.0 fold in series [7], 4.8 fold in series [8], 4.2 fold in [9] and 18.3 fold in series [10].
With `O=c1c(O)c(-c2ccc(O)c(O)c2)oc2cc(O)cc(O)c12` [Quercetin], the IC50 in series [11] was 8.47 µM.
The compound `O=C1Nc2ccc(Cl)cc2[C@@](C#CC2CC2)(C(F)(F)F)O1` [Efavirenz] showed an IC50 in series [12] of 27.3 µM.

For orientation: Ki means the equilibrium dissociation constant of an inhibitor or competing ligand from its target. One may read the IC50 as the point on the concentration scale where inhibition reaches its midpoint.
